Consider four compounds from US5958683A, “Screening method using the RZR receptor family” (priority 1994, dated 1999).

One test concerns adjuvant arthritis. Particulars: known to be active or inactive; cited from earlier work.
Another test has as its target T1, RZR/RORα (Homo sapiens, UniProt P35398).
T1 construct: RZRα is likely the RORalpha4 splice form
T1 sequence (P35398 1-523): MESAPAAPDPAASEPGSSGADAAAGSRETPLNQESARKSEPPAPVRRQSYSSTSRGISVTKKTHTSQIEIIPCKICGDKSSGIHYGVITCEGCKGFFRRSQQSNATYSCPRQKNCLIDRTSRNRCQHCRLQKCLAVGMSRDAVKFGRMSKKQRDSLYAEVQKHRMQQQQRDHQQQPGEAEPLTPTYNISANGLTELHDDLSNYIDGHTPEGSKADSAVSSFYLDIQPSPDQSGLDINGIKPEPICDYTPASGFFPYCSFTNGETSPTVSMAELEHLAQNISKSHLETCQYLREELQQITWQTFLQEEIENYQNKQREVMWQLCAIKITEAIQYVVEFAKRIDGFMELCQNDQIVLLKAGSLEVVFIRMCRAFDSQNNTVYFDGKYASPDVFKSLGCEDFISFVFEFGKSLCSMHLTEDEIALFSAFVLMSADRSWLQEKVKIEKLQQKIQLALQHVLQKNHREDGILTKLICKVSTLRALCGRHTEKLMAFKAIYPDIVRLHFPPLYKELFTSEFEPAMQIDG
Kind of test: CAT reporter assay for ligand induced activation, Drosophila SL-3 cells transfected with RZR/RORα. The class given is cell-based. Conditions: when applied in the nanomolar range. The protocol:
After dilution with 0.9 ml Schneider's medium, the liposomes are added to the cells.
The values given in table 1 represent the mean activation of CAT activities measured in three independent experiments, compared to the addition of pure solvent (ethanol).

With `CC1=C(/C=C/C(C)=C/C=C/C(C)=C/C(=O)O)C(C)(C)CCC1` [9-cis RA, retinoic acid], in the test on adjuvant arthritis, the “activity in adjuvant arthritis” value was “-”.
For the compound `CC1=C(/C=C/C(C)=C/C=C/C(C)=C/C(=O)O)C(C)(C)CCC1` [all trans RA, retinoic acid], in the test with adjuvant arthritis, the “activity in adjuvant arthritis” value is given as “-”.
Consider `COc1ccc2[nH]cc(CCNC(C)=O)c2c1` [melatonin], for which the “affinity to the RZR/RORα receptor” value at RZR/RORα is on record as “high affinity”.
For the compound `C=C1/C(=C\C=C2/CCC[C@]3(C)[C@@H]([C@H](C)CCCC(C)(C)O)CC[C@@H]23)C[C@@H](O)C[C@@H]1O` [vitamin D, 1,25-dihydroxyvitaminD3], the “activity in adjuvant arthritis” value in the test on adjuvant arthritis is listed as “-”.
